Columns and labels:
Format in all cases: cell-based
H23 cells (KRas G12C) = assay: Cell confluency of H23 cells under treatment, Incucyte Live-Cell Analysis / amidoblack staining; conditions: drug used alone, 1 μM, 35 days
Method: FIG. 1. […] A. Cell confluency was measured twice a week over 35 days of indicated treatments. B. Amidoblack staining of a 6-well plate after 35 of indicated treatments.
Medium was changed twice a week and cell confluency was monitored by Incucyte® Live-Cell Analysis System.

[1] = system: Calu-1 KRAS (G12C)-mutant non-small cell lung cancer (NSCLC) cell line; assay: FUCCI-transduced Calu-1 cells, response/relapse monitored by Incucyte during 50 days; conditions: Calu-1, 50 days
[2] = system: H23 KRAS (G12C)-mutant non-small cell lung cancer (NSCLC) cell line; assay: FUCCI-transduced H23 cells, response/relapse monitored by Incucyte during 50 days; conditions: H23, 50 days
[3] = 1 μM tipifarnib added to 1 μM sotorasib

SMILES | anti-tumor effect (cell confluency) (H23 cells (KRas G12C)) | emergence of resistant proliferative clones (total cell number) ([1]; 1 μM sotorasib alone) | emergence of resistant proliferative clones (total cell number) ([2]; 1 μM sotorasib alone) | cell cycle dynamics [1, 3] | emergence of resistant proliferative clones (total cell number) [1, 3] | cell cycle dynamics [2, 3] | emergence of resistant proliferative clones (total cell number) [2, 3]
C=CC(=O)N1CCN(c2nc(=O)n(-c3c(C)ccnc3C(C)C)c3nc(-c4c(O)cccc4F)c(F)cc23)[C@@H](C)C1 [sotorasib, 6-fluoro-7-(2-fluoro-6-hydroxyphenyl)-1-[4-methyl-2-(propan-2-yl)pyridin-3-yl]-4-[(2S)-2-methyl-4-(prop-2-enoyl)piperazin-1-yl]-1H,2H-pyrido[2,3-d]pyrimidin-2-one] | did not show a significant anti-tumor effect | developed resistant proliferative clones (RPC) | developed resistant proliferative clones (RPC) |  |  |  | 
Cn1cncc1[C@@](N)(c1ccc(Cl)cc1)c1ccc2c(c1)c(-c1cccc(Cl)c1)cc(=O)n2C [tipifarnib, (R)-6-[amino (4-chlorophenyl) (1-methyl-1H-imidazol-5-yl)methyl]-4-(3-chlorophenyl)-1-methyl-2 (1H)-quinolinone] | did not show a significant anti-tumor effect |  |  | strongly impacting cell cycle dynamics, resulting in cell death | prevented the emergence of RPC | strongly impacting cell cycle dynamics, resulting in cell death | prevented the emergence of RPC
